Assay results from paper PMC4604048 (The Pediatric infectious disease journal, 2015).

Tests used:
[1] = Intensive steady-state plasma pharmacokinetics of dolutegravir, Stage I; format: in vivo, human (HIV-1 infected treatment-experienced adolescents); details: Stage I N=10, ~1 mg/kg once daily; for AUC(0-t) / concentration at 24 h / Cmax / half-life: human, plasma, oral, 1 mg/kg
HIV-1 = assay: Virologic efficacy: plasma HIV-1 RNA through Week 48; format: in vivo, human (HIV-1 infected treatment-experienced adolescents); details: Week 48, N=23, dolutegravir plus OBR
CD4 cell count = assay: Change from baseline in CD4 cell count and percentage at Week 48; format: in vivo, human (HIV-1 infected treatment-experienced adolescents); details: Week 48, dolutegravir plus OBR
[2] = tested on: virus with R263K mutation at virologic failure; details: adult study where R263K mutation was seen; cited from earlier work
[3] = Safety and adverse events through Week 48
HIV = details: week 48; cited from earlier work
[4] = in vivo; cited from earlier work
[5] = Grade 1 or 2 transient clinical events, N=23, not considered related to dolutegravir

## C[C@@H]1CCO[C@H]2Cn3cc(C(=O)NCc4ccc(F)cc4F)c(=O)c(O)c3C(=O)N12 [Dolutegravir]
[1]
  C24, GM (geometric mean): 0.90 µg/mL
  CL/F, GM: 78.03 L/h
  CL/F, Mean (SD): 1.25 (±0.97) L/hr
  CL/F, Median (min, max): 0.87 (0.59, 3.83) L/hr
  Tmax, Median (min, max): 3.00 (1.00, 6.00) hr
[1]; AUC0–24, GM, Table 2
  AUC(0-t): 43100 ng·h/mL
[1]; AUC0–24, Mean (SD)
  AUC(0-t): 51600 ng·h/mL
[1]; AUC0–24, Median (min, max)
  AUC(0-t): 52900 ng·h/mL
[1]; C24, GM (geometric mean)
  concentration at 24 h: 900 ng/mL
[1]; C24, Mean (SD)
  concentration at 24 h: 1090 ng/mL
[1]; C24, Median (min, max)
  concentration at 24 h: 1140 ng/mL
[1]; Mean (SD)
  Cmax: 3820 ng/mL
[1]; Median (min, max)
  Cmax: 4010 ng/mL
[1]; T1/2, GM
  half-life: 11.9 h
[1]; T1/2, Median (min, max)
  half-life: 10.4 h
HIV-1
  Virologic success: proportion with HIV RNA < 400 copies/mL: 74%
  proportion with HIV RNA < 50 copies/mL: 61%
CD4 cell count
  Median (IQR) gain in CD4 cell count: 84 cells/µL
[2]
  dolutegravir FC values at virologic failure: < 2 fold
[3]; [5]
  abdominal pain, subjects: 21%
  arthralgia, subjects: 13%
  back pain, subjects: 13%
  decrease appetite, subjects: 30%
  diarrhea, subjects: 35%
  dizziness, subjects: 17%
  extremity pain, subjects: 26%
  fever, subjects: 30%
  headache, subjects: 26%
  lymphadenopathy, subjects: 26%
  nasal congestion, subjects: 30%
  nausea, subjects: 13%
  pharyngeal pain, subjects: 35%
  sinus congestion, subjects: 17%
[3]; through Week 48
  Grade 4 AEs, SAEs or discontinuations due to AEs: no Grade 4 AEs, SAEs or discontinuations due to AEs
[3]; through Week 48, dolutegravir plus OBR
  tolerability: well tolerated

## Cc1nnc(C(=O)NC(C)(C)c2nc(C(=O)NCc3ccc(F)cc3)c(O)c(=O)n2C)o1 [raltegravir]
HIV
  virologic efficacy of the adolescent cohort: 57%

## CCC[C@@]1(CCc2ccccc2)CC(O)=C([C@H](CC)c2cccc(NS(=O)(=O)c3ccc(C(F)(F)F)cn3)c2)C(=O)O1 [tipranavir]
[4]
  children reporting serious adverse events: 25%
  treatment discontinuation due to serious adverse events: 8%
